Assay results published in patent US5599904A, “Chimeric steroid hormone superfamily receptor proteins” (priority 1992, dated 1997).

Experiments:
[1] = molecular target: T1, chimeric receptor hRGR (human retinoic acid receptor with hGR DNA-binding domain) (Homo sapiens, UniProt P10276, INS60IETQSSSSEEIVPSPPSPPPLPRPPKLCLVCSDEASGCHYGVLTCGSCKVFFKRAVEGQHNYLCAGRNDCIIDKIRRKNCPACRYRKCLQAGMNLES); assay: Functional ligand identification assay: CAT induction in CV-1 cells cotransfected with pRShRGR and MTV-CAT; assay type: cell-based; conditions: for Induction of CAT activity of the hybrid receptor by natural and synthetic non-retinoid ligands: pRShRGR + pMTVCAT, single 1 μM dose (FIG. 3A legend); for Induction of CAT activity of the hybrid receptor (in words): pRShRGR + MTV-CAT, FIG. 2B at 100 nM, FIG. 3A increasing concentrations
T1 construct: expressed in transfected cells; host or cells: CV-1 (African Green monkey kidney) cells, cotransfected with pRShRGR and pMTVCAT
T1 sequence (P10276 with tags, fused parts or gaps isoform P10276-3 INS60IETQSSSSEEIVPSPPSPPPLPRPPKLCLVCSDEASGCHYGVLTCGSCKVFFKRAVEGQHNYLCAGRNDCIIDKIRRKNCPACRYRKCLQAGMNLES): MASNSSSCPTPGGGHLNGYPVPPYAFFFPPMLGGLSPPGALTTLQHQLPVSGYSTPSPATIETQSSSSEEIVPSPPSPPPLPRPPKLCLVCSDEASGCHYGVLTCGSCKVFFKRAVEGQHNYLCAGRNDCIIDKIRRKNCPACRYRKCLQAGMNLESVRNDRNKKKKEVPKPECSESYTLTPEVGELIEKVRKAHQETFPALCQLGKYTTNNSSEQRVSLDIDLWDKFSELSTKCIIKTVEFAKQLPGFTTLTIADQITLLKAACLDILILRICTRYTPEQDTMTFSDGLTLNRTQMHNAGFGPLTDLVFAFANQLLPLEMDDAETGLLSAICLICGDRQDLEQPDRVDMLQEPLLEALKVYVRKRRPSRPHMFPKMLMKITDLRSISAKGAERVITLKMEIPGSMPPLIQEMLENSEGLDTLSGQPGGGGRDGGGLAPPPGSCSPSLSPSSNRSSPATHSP
From the text: Since the ligand for the gene product of phRAR1 was unknown, it was desirable to develop a quick and sensitive assay to reveal its identity. […] This chimera recognizes the glucocorticoid responsive element of the MMTV-LTR but stimulates transcription in an estrogen-dependent fashion (see Green, et al., (1987)). This led us to wonder if a general domain-swapping strategy could be exploited to identify the ligand-binding properties of a novel hormone receptor. To test this approach we first substituted the DNA-binding domain of the phRAR1 gene product with the well described DNA-binding domain from the hGR (FIG. 2A). (This chimeric construction, when expressed in suitable host cells, produces a hybrid receptor protein whose ligand-binding domain region must bind with a functional exogenous ligand before the ligand/receptor complex can bind to a GRE, thereby activating a glucocorticoid inducible promoter.)
To assay for the presence of a functional ligand the chimeric receptor gene was transfected into suitable host cells along with a suitable GRE linked reporter gene. CV-1 cells were used for the assay along with a MMTV-CAT reporter gene. (MMTV-CAT is carried on reporter plasmid, GM-CAT, which has been deposited with the American Type Culture Collection for patent purposes; see the section of this specification labeled, "Deposits"). […] For example, the growth hormone promoter can be functionally linked to the bacterial CAT gene. Since the growth hormone promoter contains a thyroid responsive transcription element, such a reporter plasmid can be used to assay hybrid thyroid receptor proteins. See the subheading: "Construction of Reporter and Expression Plasmids" in this specification. (Since mineralocorticoid receptors can activate GRE's, a reporter plasmid such as GM-CAT can be used to assay hybrid mineralocorticoid receptor proteins.)
Returning to the functional ligand identification assay, the transfected cells were then systematically challenged with a battery of candidate ligands and induction monitored by changes in CAT activity.
(§1) FIGS. 2A and 2B. 2A, Construction of the chimeric receptor hRGR. The domain-structure of the various constructions are shown schematically, the numbers correspond to the amino acid positions of each domain. The DNA-binding domains are represented by "DNA" and the ligand-binding domains by their respective inducers. The Nor1 and Xho1 sites created by site-directed mutagenesis to permit the exchange of the DNA-binding domains between receptors are indicated.
(§2) Methods. […] The mutant receptors were then transferred to the expression vector pRS (see Giguere, et al., (1986), and the Not1/Xho1 restriction fragment of pRShGRNX containing the hGR DNA-binding domain was introduced into pRShRnx between the Not1 and Xho1 sites to create pRShRGR. B, Cell transfection and CAT assay. The recombinant DNA constructs (5 μg each) were introduced into CV-1 cells by calcium phosphate coprecipitation (see Wigler, et al., (1979)). The cells were then cultured for two days in serum free media supplemented with Nutridoma (Boehringer Mannheim) in presence or absence of inducers. CV-1 cells were then prepared for CAT assays as described by Gorman, et al. (1982) and the assays performed for 3 h using 25 μg of protein extract. All experiments with retinol were conducted in subdued light.
(§3) FIGS. 3A and 3B. 3A, Dose-response to retinoids. […] The levels of CAT activity were plotted as percentages of the maximal response observed in this experiment. […] The values represent the mean of quadruplicate determinations.
Methods. 3A, CV-1 cell cotransfections and CAT assays were performed as described in FIG. 2.

[2] = test system: hybrid receptors with an hTRβ carboxyl terminus; assay: Hybrid thyroid/glucocorticoid receptor CAT assay, hybrids with hTRβ carboxyl terminus; assay type: cell-based, human; conditions: CV-1 cells, FIG. 9
Protocol: CV-1 cells were used as the receptor-deficient host cells that were transfected with expression plasmids that carry the chimeric RR/TR receptors, and reporter plasmids carrying the CAT reporter gene. […] Acetylated and non-acetylated forms of [^14 C]chloramphenicol were separated by thin layer chromatography, excised, and quantitated by liquid scintillation counting in Econofluor (DuPont) with 5% DMSO. β-galactosidase assays were performed as described by Herbomel et al. (1984). CAT activity is expressed as percent conversion divided by β-galactosidase activity.

[3] = test system: alpha thyroid hormone receptor (rTRα); conditions: CV-1 cells, absence or presence of T3 (data not shown)
[4] = test system: beta thyroid hormone receptor (hTRβ); conditions: CV-1 cells, absence or presence of T3 (data not shown)
[5] = molecular target: T2, phRAR1 gene product (human retinoic acid receptor) (Homo sapiens, UniProt P10276); assay: 3H-retinoic acid binding to cytosol extracts of COS-1 cells transfected with pRShRR; conditions: for Competition of 3H-retinoic acid binding: cytosol of transfected COS-1 cells, 2×10^-8 M 3H-retinoic acid, 1000-fold excess (2×10^-5 M) competitor, 4° C., 16 h
T2 sequence (P10276 1-462): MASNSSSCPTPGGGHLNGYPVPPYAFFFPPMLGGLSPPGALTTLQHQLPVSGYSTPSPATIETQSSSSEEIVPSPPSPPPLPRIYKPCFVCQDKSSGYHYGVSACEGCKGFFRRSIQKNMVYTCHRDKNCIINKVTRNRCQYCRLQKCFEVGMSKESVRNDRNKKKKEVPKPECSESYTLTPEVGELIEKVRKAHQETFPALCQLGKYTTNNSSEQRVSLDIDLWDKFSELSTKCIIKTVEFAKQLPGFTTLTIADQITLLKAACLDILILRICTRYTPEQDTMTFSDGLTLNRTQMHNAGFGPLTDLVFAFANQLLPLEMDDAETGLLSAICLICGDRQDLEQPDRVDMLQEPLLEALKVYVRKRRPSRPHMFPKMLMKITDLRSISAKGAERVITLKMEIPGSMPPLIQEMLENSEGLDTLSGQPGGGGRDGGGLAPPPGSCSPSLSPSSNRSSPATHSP
Protocol: as §3
Methods. 3A, CV-1 cell cotransfections and CAT assays were performed as described in FIG. 2. […] All other products were diluted in ethanol and control cultures received 0.1% solvent (v/v) in media. Dose-response curves of retinoid treatment were performed in triplicate. 3B, Subconfluent COS-1 cells were transfected with 10 μg/dish of a control plasmid (pRS) or pRShRR by the DEAE-Dextran method (see Deans, et al., (1984)). Cells were maintained for 2 days in DMEM with 5% charcoal-treated fetal calf serum, then harvested in TNE (40 mM tris-HCl pH 7.5, 150 mM NaCl, 1 mM EDTA) and lysed by Dounce homogenization in hypotonic buffer (50 mM tris-HCl pH 7.4, 0.1 mM EDTA, 5 mM dithiothreitol,10 mM NaMoO4, 10% glycerol, 0.5 mM phenylmethylsulfonyl fluoride) and centrifuged at 100,000×g for 30 min to yield the cytosol fraction. […] Specific binding was measured by the addition of 2×10^-5 M of competitors. Reactions were carried out at 4° C. for 16 h. […] Reactions were placed on filters for 1 min and then rinsed with 5 ml of washing buffer (50 mM tris-HCl pH 7.4, 0.1 mM EDTA, 0.1% Triton X-100). Filters were dried and counted by liquid scintillation spectrophotometry.

[6] = test system: human glucocorticoid receptor (hGR); assay: CAT induction in CV-1 cells cotransfected with pRShGR and MTV-CAT; assay type: cell-based; conditions: pRShGR + MTVCAT, 100 nM, 2 days
From the text: as §1, §2

[7] = test system: human retinoic acid receptor (hRARα); assay: CAT induction in CV-1 cells cotransfected with pRShRR and MTV-CAT; assay type: cell-based; conditions: pRShRR + MTVCAT, 100 nM, 2 days
From the text: as §1, §2

[8] = test system: mutated human retinoic acid receptor with Not1 and Xho1 sites (pRShRRNX); assay: CAT induction in CV-1 cells cotransfected with parent vector pRShRRNX and MTV-CAT; assay type: cell-based; conditions: pRShRRNX + MTVCAT, 100 nM, 2 days
From the text: as §1, §2

## C[C@H](CCCC(C)(C)O)[C@H]1CC[C@H]2[C@@H]3CC=C4C[C@@H](O)CC[C@]4(C)[C@H]3CC[C@]12C [25-OH-cholesterol]
[1]
  Induction of CAT activity of the hybrid receptor by natural and synthetic non-retinoid ligands: failed to induce CAT activity

## N[C@@H](Cc1cc(I)c(Oc2ccc(O)c(I)c2)c(I)c1)C(=O)O [T3, 3,5,3'-triiodo-L-thyronine]
[2]
  Activation of hybrid receptors by hormone: activated
[3]
  Activation of transcription from MTV-CAT (no TRE): neither the alpha nor the beta thyroid hormone receptor activates transcription
[4]
  Activation of transcription from MTV-CAT (no TRE): neither the alpha nor the beta thyroid hormone receptor activates transcription

## N[C@@H](Cc1cc(I)c(Oc2cc(I)c(O)c(I)c2)c(I)c1)C(=O)O [T4, thyroxine]
[1]
  Induction of CAT activity of the hybrid receptor by natural and synthetic non-retinoid ligands: failed to induce CAT activity

## C=C1CC[C@H](O)C/C1=C/C=C1\CCC[C@]2(C)[C@@H]([C@H](C)CCCC(C)C)CC[C@@H]12 [Vitamin D3]
[1]
  Induction of CAT activity of the hybrid receptor by natural and synthetic non-retinoid ligands: failed to induce CAT activity
[5]
  Competition of 3H-retinoic acid binding: did not compete

## C[C@]12CCC(=O)C=C1CC[C@@H]1[C@@H]2[C@@H](O)C[C@]2(C=O)[C@@H](C(=O)CO)CC[C@@H]12 [aldosterone]
[1]
  Induction of CAT activity of the hybrid receptor by natural and synthetic non-retinoid ligands: failed to induce CAT activity

## C[C@]12CCC(=O)C=C1CC[C@@H]1[C@@H]2[C@@H](O)C[C@@]2(C)[C@H]1CC[C@]2(O)C(=O)CO [cortisol]
[1]
  Induction of CAT activity of the hybrid receptor by natural and synthetic non-retinoid ligands: failed to induce CAT activity

## C[C@]12CCC(=O)C[C@@H]1CC[C@@H]1[C@@H]2CC[C@]2(C)[C@@H](O)CC[C@@H]12 [dihydrotestosterone]
[1]
  Induction of CAT activity of the hybrid receptor by natural and synthetic non-retinoid ligands: failed to induce CAT activity

## CC(=O)[C@H]1CC[C@H]2[C@@H]3CCC4=CC(=O)CC[C@]4(C)[C@H]3CC[C@]12C [progesterone]
[1]
  Induction of CAT activity of the hybrid receptor by natural and synthetic non-retinoid ligands: failed to induce CAT activity

## CC1=C(/C=C/C(C)=C/C=C/C(C)=C/C(=O)O)C(C)(C)CCC1 [retinoic acid]
[1]
  Induction of CAT activity of the hybrid receptor (in words): dramatic increase in CAT activity
[6]
  Induction of hGR (CAT activity): not induced
[7]
  Effect upon CAT activity using wild type gene product hRARα: No effect upon CAT activity
[8]
  Effect upon CAT activity using parent vector pRShRRNX: No effect upon CAT activity
[5]
  Competition of 3H-retinoic acid binding: fully competed

## CC1=C(/C=C/C(C)=C/C=C/C(C)=C/CO)C(C)(C)CCC1 [retinol]
[1]
  Induction of CAT activity of the hybrid receptor (in words): weak agonist
[5]
  Competition of 3H-retinoic acid binding: only partially

## CCCCCCCCCCCCCCCC(=O)OC/C=C(C)/C=C/C=C(C)/C=C/C1=C(C)CCCC1(C)C [retinyl palmitate]
[1]
  Induction of CAT activity of the hybrid receptor (in words): even weaker inducers

## C[C@]12CC[C@H]3[C@@H](CCC4=CC(=O)CC[C@@]43C)[C@@H]1CC[C@@H]2O [testosterone]
[1]
  Induction of CAT activity of the hybrid receptor by natural and synthetic non-retinoid ligands: failed to induce CAT activity

## ^3 H-retinoic acid
[5]; COS-1 cells transfected with pRShRR versus control plasmid pRS
  Specific binding of 3H-retinoic acid by transfected cells: increased capacity to specifically bind

## estrogen
[1]
  Induction of CAT activity of the hybrid receptor by natural and synthetic non-retinoid ligands: failed to induce CAT activity
